Assay results reported in ChEMBL document CHEMBL4840355, “Antitumor and toxicity study of mitochondria-targeted triptolide derivatives using triphenylphosphine (TPP+) as a carrier” (Bioorg Med Chem, 2021).
The source made the active and inactive calls. The calls are words filed in the database; no cut-off is given here.

How the values were obtained:
HeLa [1] = experiment: Cytotoxicity against human HeLa cells assessed as inhibition of cell proliferation measured after 48 hrs by MTT assay; type: functional, cell-based
NCI-H1299 [2] = experiment: Cytotoxicity against human NCI-H1299 cells assessed as inhibition of cell proliferation measured after 48 hrs by MTT assay; type: functional, cell-based; conditions: NCI-H1299, 48 h
[3] = Cytotoxicity against human HBE cells assessed as inhibition of cell proliferation measured after 48 hrs by MTT assay; type: cell-based
MCF7 [4] = experiment: Cytotoxicity against human MCF7 cells assessed as inhibition of cell proliferation measured after 48 hrs by MTT assay; type: functional, cell-based; conditions: MCF7, 48 h
L02 = experiment: Cytotoxicity against human HL7702 cells assessed as inhibition of cell proliferation measured after 48 hrs by MTT assay; type: cell-based; conditions: L02, 48 h
[5] = Cytotoxicity against human A549/DDP cells assessed as inhibition of cell proliferation measured after 48 hrs by MTT assay; type: functional, cell-based
PANC-1 [6] = experiment: Cytotoxicity against human PANC-1 cells assessed as inhibition of cell proliferation measured after 48 hrs by MTT assay; type: functional, cell-based; conditions: PANC-1, 48 h
HepG2 [7] = experiment: Cytotoxicity against human HepG2 cells assessed as inhibition of cell proliferation measured after 48 hrs by MTT assay; type: functional, cell-based; conditions: HepG2, 48 h
PC-3 [8] = experiment: Cytotoxicity against human PC-3 cells assessed as inhibition of cell proliferation measured after 48 hrs by MTT assay; type: functional, cell-based; conditions: PC-3, 48 h
NCI-H1975 [9] = experiment: Cytotoxicity against human NCI-H1975 cells assessed as inhibition of cell proliferation measured after 48 hrs by MTT assay; type: functional, cell-based; conditions: NCI-H1975, 48 h
PC-3 [10] = experiment: Potency index, ratio of TP IC50 to test compound IC50 for cytotoxicity against human PC-3 cells; type: functional
HeLa [11] = experiment: Potency index, ratio of TP IC50 to test compound IC50 for cytotoxicity against human HeLa cells; type: functional
NCI-H1975 [12] = experiment: Potency index, ratio of TP IC50 to test compound IC50 for cytotoxicity against human NCI-H1975 cells; type: functional
NCI-H1299 [13] = experiment: Potency index, ratio of TP IC50 to test compound IC50 for cytotoxicity against human NCI-H1299 cells; type: functional
PANC-1 [14] = experiment: Potency index, ratio of TP IC50 to test compound IC50 for cytotoxicity against human PANC-1 cells; type: functional
MCF7 [15] = experiment: Potency index, ratio of TP IC50 to test compound IC50 for cytotoxicity against human MCF7 cells; type: functional
HepG2 [16] = experiment: Potency index, ratio of TP IC50 to test compound IC50 for cytotoxicity against human HepG2 cells; type: functional
[17] = Potency index, ratio of TP IC50 to test compound IC50 for cytotoxicity against human A549/DDP cells; type: functional
HepG2 [18] = experiment: Antitumor activity against human HepG2 cells xenografted in zebra fish AB assessed as tumor growth inhibition at 1 uM measured after 48 hrs by fluorescence microscopic analysis; type: functional, cell-based

| Structure (SMILES) | IC50 (HeLa [1]) | IC50 (NCI-H1299 [2]) | IC50 [3] | IC50 (MCF7 [4]) | IC50 (L02) | IC50 [5] | IC50 (PANC-1 [6]) | IC50 (HepG2 [7]) | IC50 (PC-3 [8]) | IC50 (NCI-H1975 [9]) | Ratio IC50 (PC-3 [10]) | Ratio IC50 (HeLa [11]) | Ratio IC50 (NCI-H1975 [12]) | Ratio IC50 (NCI-H1299 [13]) | Ratio IC50 (PANC-1 [14]) | Ratio IC50 (MCF7 [15]) | Ratio IC50 (HepG2 [16]) | Ratio IC50 [17] | Activity (HepG2 [18]) |
| --- | --- | --- | --- | --- | --- | --- | --- | --- | --- | --- | --- | --- | --- | --- | --- | --- | --- | --- | --- |
| CC(C)[C@]12O[C@H]1[C@@H]1O[C@]13[C@]1(O[C@H]1C[C@H]1C4=C(CC[C@@]13C)C(=O)OC4)[C@@H]2OC(=O)CCCCCCCCCC[P+](c1ccccc1)(c1ccccc1)c1ccccc1 | 617 nM | 381 nM | 212 nM | 192 nM | 415 nM | 1020 nM | 186 nM | 355 nM | 149 nM | 265 nM |  |  |  |  |  |  |  |  |  |
| CCCCC(=O)O[C@@H]1[C@@]2(C(C)C)O[C@H]2[C@@H]2O[C@]23[C@]12O[C@H]2C[C@H]1C2=C(CC[C@@]13C)C(=O)OC2 | 809 nM | 505 nM | 327 nM | 1690 nM | 317 nM | > 10000 nM | 140 nM | 489 nM | 985 nM | 525 nM |  |  |  |  |  |  |  |  |  |
| CCCCCCCCCCC(=O)O[C@@H]1[C@@]2(C(C)C)O[C@H]2[C@@H]2O[C@]23[C@]12O[C@H]2C[C@H]1C2=C(CC[C@@]13C)C(=O)OC2 | 473 nM | 333 nM | 153 nM | 471 nM | 188 nM | > 10000 nM | 320 nM | 292 nM | 1260 nM | 95 nM |  |  |  |  |  |  |  |  |  |
| CCCCCCCC(=O)O[C@@H]1[C@@]2(C(C)C)O[C@H]2[C@@H]2O[C@]23[C@]12O[C@H]2C[C@H]1C2=C(CC[C@@]13C)C(=O)OC2 | 449 nM | 194 nM | 141 nM | 554 nM | 63 nM | > 10000 nM | 137 nM | 111 nM | 170 nM | 152 nM |  |  |  |  |  |  |  |  |  |
| CC(C)[C@]12O[C@H]1[C@@H]1O[C@]13[C@]1(O[C@H]1C[C@H]1C4=C(CC[C@@]13C)C(=O)OC4)[C@@H]2OC(=O)CCCCCCBr | 252 nM | 89 nM | 116 nM | 92 nM | 75 nM | > 10000 nM | 211 nM | 65 nM | 42 nM | 98 nM |  |  |  |  |  |  |  |  |  |
| CCCCCCC(=O)O[C@@H]1[C@@]2(C(C)C)O[C@H]2[C@@H]2O[C@]23[C@]12O[C@H]2C[C@H]1C2=C(CC[C@@]13C)C(=O)OC2 | 242 nM | 134 nM | 119 nM | 213 nM | 42 nM | > 10000 nM | 169 nM | 52 nM | 189 nM | 82 nM |  |  |  |  |  |  |  |  |  |
| CC(C)[C@]12O[C@H]1[C@@H]1O[C@]13[C@]1(O[C@H]1C[C@H]1C4=C(CC[C@@]13C)C(=O)OC4)[C@@H]2OC(=O)CCCC[P+](c1ccccc1)(c1ccccc1)c1ccccc1.[Br-] | 22900 nM | 2240 nM | 6270 nM | 18700 nM | 17400 nM | > 10000 nM | 13400 nM | 24200 nM | 26400 nM | 1380 nM | 100 | 100 | 100 | 100 | 100 | 100 | 100 | 100 |  |
| CC(C)[C@]12O[C@H]1[C@@H]1O[C@]13[C@]1(O[C@H]1C[C@H]1C4=C(CC[C@@]13C)C(=O)OC4)[C@@H]2OC(=O)CCCCCC[P+](c1ccccc1)(c1ccccc1)c1ccccc1 | 269 nM | 242 nM | 136 nM | 316 nM | 319 nM | > 10000 nM | 239 nM | 135 nM | 145 nM | 145 nM |  |  |  |  |  |  |  |  |  |
| CC(C)[C@]12O[C@H]1[C@@H]1O[C@]13[C@]1(O[C@H]1C[C@H]1C4=C(CC[C@@]13C)C(=O)OC4)[C@@H]2OC(=O)CCCCCCCCCCBr | 1080 nM | 557 nM | 479 nM | 426 nM | 227 nM | > 10000 nM | 366 nM | 625 nM | 814 nM | 381 nM |  |  |  |  |  |  |  |  |  |
| CC(C)[C@]12O[C@H]1[C@@H]1O[C@]13[C@]1(O[C@H]1C[C@H]1C4=C(CC[C@@]13C)C(=O)OC4)[C@@H]2OC(=O)CCCCCBr | 386 nM | 116 nM | 170 nM | 363 nM | 85 nM | > 10000 nM | 387 nM | 147 nM | 79 nM | 208 nM |  |  |  |  |  |  |  |  |  |
| CCCCCC(=O)O[C@@H]1[C@@]2(C(C)C)O[C@H]2[C@@H]2O[C@]23[C@]12O[C@H]2C[C@H]1C2=C(CC[C@@]13C)C(=O)OC2 | 340 nM | 216 nM | 101 nM | 644 nM | 153 nM | > 10000 nM | 86 nM | 74 nM | 157 nM | 81 nM |  |  |  |  |  |  |  |  |  |
| CC(C)[C@]12O[C@H]1[C@@H]1O[C@]13[C@]1(O[C@H]1C[C@H]1C4=C(CC[C@@]13C)C(=O)OC4)[C@@H]2OC(=O)CCCCCCC[P+](c1ccccc1)(c1ccccc1)c1ccccc1 | 331 nM | 202 nM | 123 nM | 312 nM | 127 nM | > 10000 nM | 165 nM | 60 nM | 163 nM | 190 nM |  |  |  |  |  |  |  |  |  |
| CC(C)[C@]12O[C@H]1[C@@H]1O[C@]13[C@]1(O[C@H]1C[C@H]1C4=C(CC[C@@]13C)C(=O)OC4)[C@@H]2OC(=O)CCCCCCCBr | 265 nM | 89 nM | 132 nM | 300 nM | 88 nM | > 10000 nM | 137 nM | 138 nM | 163 nM | 36 nM |  |  |  |  |  |  |  |  |  |
| CC(C)[C@]12O[C@H]1[C@@H]1O[C@]13[C@]1(O[C@H]1C[C@H]1C4=C(CC[C@@]13C)C(=O)OC4)[C@@H]2OC(=O)CCCCBr | 719 nM | 232 nM | 266 nM | 384 nM | 84 nM | > 10000 nM | 1220 nM | 231 nM | 189 nM | 163 nM |  |  |  |  |  |  |  |  |  |
| COc1cccc2c1C(=O)c1c(O)c3c(c(O)c1C2=O)C[C@@](O)(C(=O)CO)C[C@@H]3O[C@H]1C[C@H](N)[C@H](O)[C@H](C)O1 [DOXORUBICIN] | 2090 nM | 1300 nM | 1260 nM |  | 351 nM | 10800 nM | 3100 nM | 1970 nM | 539 nM | 2680 nM |  |  |  |  |  |  |  |  | Active |
